Legend:
Japanese bulrush = assay: Test Example 1: herbicidal activity, application before weed generation under submerged conditions (Table 16, symbol B); assay type: in vivo, Japanese bulrush (Schoenoplectus juncoides); conditions: amount of applied herbicide 320 g/ha
In short: (§1)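 Alluvial soil was flooded to 4 cm depth, weed seeds were sown mixed and 2.5-leaf rice seedlings were transplanted. On sowing day, the compound's emulsion, diluted in water to a set dose, was applied to the water surface. Plants grew at 25–30 °C and were scored 0–5 after three weeks.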

oval-leafed pondweed = assay: Test Example 1: herbicidal activity, application before weed generation under submerged conditions (Table 16, symbol C); assay type: in vivo, oval-leafed pondweed (Monochoria vaginalis); conditions: amount of applied herbicide 320 g/ha
In short: as §1

barnyard grass [1] = assay: Test Example 3: herbicidal effect by foliage application, Wagner pot (Table 18, symbol H); assay type: in vivo, barnyard grass (Echinochloa crus-galli); conditions: 320 g/ha
In short: (§2)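 Plants were sown in alluvial soil held under 0.1–0.5 cm standing water and grown 14 days in a greenhouse at 25–30 °C. An emulsifiable formulation, water-diluted to the set dose, was then sprayed onto the foliage, and effects were scored three weeks later using previously defined criteria.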

Chinese sprangletop = assay: Test Example 3: herbicidal effect by foliage application, Wagner pot (Table 18, symbol D); assay type: in vivo, chinese sprangletop (Leptochloa chinensis); conditions: 320 g/ha
In short: as §2

rice flat sedge = assay: Test Example 3: herbicidal effect by foliage application, Wagner pot (Table 18, symbol E); assay type: in vivo, rice flat sedge (Cyperus iria); conditions: 320 g/ha
In short: as §2

southern crabgrass = assay: Test Example 4: herbicidal effect by soil treatment (Table 19, symbol F); assay type: in vivo, southern crabgrass (Digitaria ciliaris); conditions: amount of applied herbicide 320 g/ha
In short: (§3)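 Three weeks of greenhouse growth at 25° C. to 30° C. followed a uniform surface spray of water-diluted emulsion at a predetermined herbicide amount. Seeds had been sown beforehand under about 1.5 cm of sterilized diluvial soil. Grading followed criteria set out in an earlier test.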

green foxtail [2] = assay: Test Example 4: herbicidal effect by soil treatment (Table 19, symbol G); assay type: in vivo, green foxtail (Setaria viridis); conditions: amount of applied herbicide 320 g/ha
In short: as §3

barnyard grass [3] = assay: Test Example 4: herbicidal effect by soil treatment (Table 19, symbol H); assay type: in vivo, barnyard grass (Echinochloa crus-galli); conditions: amount of applied herbicide 320 g/ha
In short: as §3

windgrass [4] = assay: Test Example 4: herbicidal effect by soil treatment (Table 19, symbol L); assay type: in vivo, windgrass (Apera spica-venti); conditions: amount of applied herbicide 320 g/ha
In short: as §3

velvetleaf = assay: Test Example 4: herbicidal effect by soil treatment (Table 19, symbol M); assay type: in vivo, velvetleaf (Abutilon theophrasti); conditions: amount of applied herbicide 320 g/ha
In short: as §3

redroot pigweed = assay: Test Example 4: herbicidal effect by soil treatment (Table 19, symbol N); assay type: in vivo, redroot pigweed (Amaranthus retroflexus); conditions: amount of applied herbicide 320 g/ha
In short: as §3

green foxtail [5] = assay: Test Example 5: herbicidal effect by foliage application, plastic box (Table 20, symbol G); assay type: in vivo, green foxtail (Setaria viridis); conditions: foliage application, 320 g/ha, three weeks after application
In short: (§4)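 Plants sown in sterilized diluvial soil and grown 14 days in a greenhouse at 25° C to 30° C, then sprayed on the foliage with the compound's emulsion diluted in water to a predetermined herbicide amount. Injury to weeds and crops scored three weeks after application on a visual rating scale.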

barnyard grass [6] = assay: Test Example 5: herbicidal effect by foliage application, plastic box (Table 20, symbol H); assay type: in vivo, barnyard grass (Echinochloa crus-galli); conditions: foliage application, 320 g/ha, three weeks after application
In short: as §4

wild oat = assay: Test Example 5: herbicidal effect by foliage application, plastic box (Table 20, symbol I); assay type: in vivo, wild oat (Avena fatua); conditions: foliage application, 320 g/ha, three weeks after application
In short: as §4

windgrass [7] = assay: Test Example 5: herbicidal effect by foliage application, plastic box (Table 20, symbol L); assay type: in vivo, windgrass (Apera spica-venti); conditions: foliage application, 320 g/ha, three weeks after application
In short: as §4

lambsquarters = assay: Test Example 5: herbicidal effect by foliage application, plastic box (Table 20, symbol O); assay type: in vivo, lambsquarters (Chenopodium album); conditions: foliage application, 320 g/ha, three weeks after application
In short: as §4

persian speedwell = assay: Test Example 5: herbicidal effect by foliage application, plastic box (Table 20, symbol R); assay type: in vivo, Persian speedwell (Veronica persica); conditions: foliage application, 320 g/ha, three weeks after application
In short: as §4

| SMILES | Herbicidal effect, B: Japanese bulrush (Japanese bulrush) | Herbicidal effect, C: oval-leafed pondweed (oval-leafed pondweed) | herbicidal effect on barnyard grass (H) (barnyard grass [1]) | herbicidal effect on Chinese sprangletop (D) (Chinese sprangletop) | herbicidal effect on rice flat sedge (E) (rice flat sedge) | F: southern crabgrass, herbicidal effect grade (southern crabgrass) | G: green foxtail, herbicidal effect grade (green foxtail [2]) | H: barnyard grass, herbicidal effect grade (barnyard grass [3]) | L: windgrass, herbicidal effect grade (windgrass [4]) | M: velvetleaf, herbicidal effect grade (velvetleaf) | N: redroot pigweed, herbicidal effect grade (redroot pigweed) | G: green foxtail, herbicidal effect grade (green foxtail [5]) | H: barnyard grass, herbicidal effect grade (barnyard grass [6]) | I: wild oat, herbicidal effect grade (wild oat) | L: windgrass, herbicidal effect grade (windgrass [7]) | O: lambsquarters, herbicidal effect grade (lambsquarters) | R: persian speedwell, herbicidal effect grade (persian speedwell) |
| --- | --- | --- | --- | --- | --- | --- | --- | --- | --- | --- | --- | --- | --- | --- | --- | --- | --- |
| CCOc1ccc2c(-c3c(O)c(C)nn(C)c3=O)c(-c3ccc(OC)cc3)sc2c1 [3-091] | 4 (Herbicidal rate of 70% or more and less than 90%) | 4 (Herbicidal rate of 70% or more and less than 90%) | 2 (Herbicidal rate of 20% or more and less than 40%) | 0 (Herbicidal rate of 5% or less (almost no effect)) | 4 (Herbicidal rate of 70% or more and less than 90%) | 2 (Herbicidal rate of 20% or more and less than 40%) | 0 (Herbicidal rate of 5% or less (almost no effect)) | 0 (Herbicidal rate of 5% or less (almost no effect)) | 0 (Herbicidal rate of 5% or less (almost no effect)) | 0 (Herbicidal rate of 5% or less (almost no effect)) | 3 (Herbicidal rate of 40% or more and less than 70%) | 0 (Herbicidal rate of 5% or less (almost no effect)) | 3 (Herbicidal rate of 40% or more and less than 70%) | 0 (Herbicidal rate of 5% or less (almost no effect)) | 0 (Herbicidal rate of 5% or less (almost no effect)) | 5 (Herbicidal rate of 90% or more (almost completely withered)) | 5 (Herbicidal rate of 90% or more (almost completely withered)) |
| CCOc1ccc2c(-c3c(O)c(C)nn(C)c3=O)c(-c3ccc(F)cc3OCC)sc2c1 [3-095] | 5 (Herbicidal rate of 90% or more (almost completely withered)) | 5 (Herbicidal rate of 90% or more (almost completely withered)) | 5 (Herbicidal rate of 90% or more (almost completely withered)) | 5 (Herbicidal rate of 90% or more (almost completely withered)) | 5 (Herbicidal rate of 90% or more (almost completely withered)) | 4 (Herbicidal rate of 70% or more and less than 90%) | 5 (Herbicidal rate of 90% or more (almost completely withered)) | 5 (Herbicidal rate of 90% or more (almost completely withered)) | 4 (Herbicidal rate of 70% or more and less than 90%) | 3 (Herbicidal rate of 40% or more and less than 70%) | 5 (Herbicidal rate of 90% or more (almost completely withered)) | 3 (Herbicidal rate of 40% or more and less than 70%) | 5 (Herbicidal rate of 90% or more (almost completely withered)) | 5 (Herbicidal rate of 90% or more (almost completely withered)) | 5 (Herbicidal rate of 90% or more (almost completely withered)) | 5 (Herbicidal rate of 90% or more (almost completely withered)) | 5 (Herbicidal rate of 90% or more (almost completely withered)) |
| COc1ccccc1-c1sc2cc(OC(C)C)ccc2c1-c1c(O)c(C)nn(C)c1=O [3-101] | 5 (Herbicidal rate of 90% or more (almost completely withered)) | 5 (Herbicidal rate of 90% or more (almost completely withered)) | 5 (Herbicidal rate of 90% or more (almost completely withered)) | 3 (Herbicidal rate of 40% or more and less than 70%) | 5 (Herbicidal rate of 90% or more (almost completely withered)) | 2 (Herbicidal rate of 20% or more and less than 40%) | 5 (Herbicidal rate of 90% or more (almost completely withered)) | 5 (Herbicidal rate of 90% or more (almost completely withered)) | 4 (Herbicidal rate of 70% or more and less than 90%) | 3 (Herbicidal rate of 40% or more and less than 70%) | 4 (Herbicidal rate of 70% or more and less than 90%) | 5 (Herbicidal rate of 90% or more (almost completely withered)) | 5 (Herbicidal rate of 90% or more (almost completely withered)) | 4 (Herbicidal rate of 70% or more and less than 90%) | 5 (Herbicidal rate of 90% or more (almost completely withered)) | 5 (Herbicidal rate of 90% or more (almost completely withered)) | 5 (Herbicidal rate of 90% or more (almost completely withered)) |
| CCCCOc1ccc2c(-c3c(O)c(C)nn(C)c3=O)c(-c3ccccc3OC)sc2c1 [3-105] | 5 (Herbicidal rate of 90% or more (almost completely withered)) | 5 (Herbicidal rate of 90% or more (almost completely withered)) | 5 (Herbicidal rate of 90% or more (almost completely withered)) | 5 (Herbicidal rate of 90% or more (almost completely withered)) | 4 (Herbicidal rate of 70% or more and less than 90%) | 0 (Herbicidal rate of 5% or less (almost no effect)) | 3 (Herbicidal rate of 40% or more and less than 70%) | 0 (Herbicidal rate of 5% or less (almost no effect)) | 4 (Herbicidal rate of 70% or more and less than 90%) | 0 (Herbicidal rate of 5% or less (almost no effect)) | 4 (Herbicidal rate of 70% or more and less than 90%) | 5 (Herbicidal rate of 90% or more (almost completely withered)) | 4 (Herbicidal rate of 70% or more and less than 90%) | 4 (Herbicidal rate of 70% or more and less than 90%) | 5 (Herbicidal rate of 90% or more (almost completely withered)) | 5 (Herbicidal rate of 90% or more (almost completely withered)) | 5 (Herbicidal rate of 90% or more (almost completely withered)) |
| COc1ccccc1-c1sc2cc(OCC(C)C)ccc2c1-c1c(O)c(C)nn(C)c1=O [3-107] | 5 (Herbicidal rate of 90% or more (almost completely withered)) | 5 (Herbicidal rate of 90% or more (almost completely withered)) | 4 (Herbicidal rate of 70% or more and less than 90%) | 3 (Herbicidal rate of 40% or more and less than 70%) | 4 (Herbicidal rate of 70% or more and less than 90%) | 3 (Herbicidal rate of 40% or more and less than 70%) | 4 (Herbicidal rate of 70% or more and less than 90%) | 3 (Herbicidal rate of 40% or more and less than 70%) | 0 (Herbicidal rate of 5% or less (almost no effect)) | 1 (Herbicidal rate of 5% or more and less than 20%) | 5 (Herbicidal rate of 90% or more (almost completely withered)) | 5 (Herbicidal rate of 90% or more (almost completely withered)) | 3 (Herbicidal rate of 40% or more and less than 70%) | 0 (Herbicidal rate of 5% or less (almost no effect)) | 5 (Herbicidal rate of 90% or more (almost completely withered)) | 5 (Herbicidal rate of 90% or more (almost completely withered)) | 5 (Herbicidal rate of 90% or more (almost completely withered)) |
